Test results taken from US9085576B2 (AMGEN INC., priority 2013, dated 2015).

Assays:
[1] = molecular target: Beta Secretase enzyme (BACE) (Homo sapiens (Human), UniProt P56817); assay: In vitro enzymatic BACE FRET assay; type: biochemical; conditions: read-out: BACE1 Enzyme assay IC50
[2] = molecular target: Cathepsin D (Cat D) (Homo sapiens (Human), UniProt P07339); assay: In vitro enzymatic Cathepsin D (Cat D) FRET assay; type: biochemical; conditions: read-out: CatD IC50
Method: In Vitro Enzymatic Cathepsin D (Cat D) FRET (Fluorescence Resonance Energy Transfer) Assay
Recombinant Cat D was expressed in CHO cells. The assay buffer for CathepsinD is 0.05 M citrate pH 3.5, 10% DMSO final, 5 mM CHAPS. […] The assays are effectively started by the addition of different FRET substrates (20 nM for Cat D) and the combination is incubated for one hour. The FRET assay is terminated with by addition of Tris buffer, which raises the pH to neutrality, and the fluorescence is determined. […] Proteolytic cleavage of the FRET substrate releases quenching of fluorescence (Cat D excitation 500 nm and emission 580 nm).

[3] = molecular target: BACE (Homo sapiens (Human), UniProt P56817); assay: In vitro BACE cell-based assay (Aβ40 in conditioned medium, sandwich ELISA)
Sequence of BACE (P56817 46-501, species assumed): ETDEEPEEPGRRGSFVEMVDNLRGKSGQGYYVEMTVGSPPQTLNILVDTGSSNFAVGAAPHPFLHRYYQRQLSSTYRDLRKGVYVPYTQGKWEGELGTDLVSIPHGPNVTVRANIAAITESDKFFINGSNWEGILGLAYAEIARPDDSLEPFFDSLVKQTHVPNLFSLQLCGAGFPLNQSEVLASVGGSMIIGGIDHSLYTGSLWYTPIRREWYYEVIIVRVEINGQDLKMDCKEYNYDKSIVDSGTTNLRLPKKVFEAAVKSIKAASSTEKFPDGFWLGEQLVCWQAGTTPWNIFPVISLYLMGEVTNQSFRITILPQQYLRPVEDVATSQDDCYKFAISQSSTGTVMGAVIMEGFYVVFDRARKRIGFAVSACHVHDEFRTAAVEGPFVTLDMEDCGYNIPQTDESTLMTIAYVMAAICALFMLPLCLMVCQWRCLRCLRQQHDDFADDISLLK

Sequence of Cathepsin D (Cat D) (P07339 65-412, species assumed): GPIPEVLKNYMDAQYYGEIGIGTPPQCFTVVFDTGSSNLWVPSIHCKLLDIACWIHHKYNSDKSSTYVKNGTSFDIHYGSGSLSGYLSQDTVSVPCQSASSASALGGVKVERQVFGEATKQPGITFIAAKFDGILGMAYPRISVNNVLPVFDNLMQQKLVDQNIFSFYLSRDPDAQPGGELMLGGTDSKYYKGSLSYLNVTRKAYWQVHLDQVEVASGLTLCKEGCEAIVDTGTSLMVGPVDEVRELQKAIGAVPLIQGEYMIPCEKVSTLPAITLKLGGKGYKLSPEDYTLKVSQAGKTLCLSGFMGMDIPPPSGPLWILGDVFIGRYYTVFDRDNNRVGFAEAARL
Sequence of Beta Secretase enzyme (BACE) (P56817 46-501): as the sequence (P56817 46-501, species assumed) above

Compound | IC50 [1] | IC50 [2] | IC50 [3]
CCOc1cnc(C(=O)Nc2ccc(F)c([C@@]3(C(F)F)N=C(N)O[C@@H]4C[C@@H]43)c2)cn1 [Example 417, N-(3-((1R,5S,6R)-3-amino-5-(difluoromethyl)-2-oxa-4-azabicyclo[4.1.0]hept-3-en-5-yl)-4-fluorophenyl)-5-ethoxypyrazine-2-carboxamide] | 0.115 µM | 1470 µM | 0.0876 µM
COc1cnc(C(=O)Nc2cc(F)c(Cl)c([C@]3(CF)N=C(N)O[C@H]4C[C@H]43)c2)cn1 [Example 155] | > 40 µM | 647 µM | > 15.6 µM
COc1cnc(C(=O)Nc2cc(F)c(Cl)c([C@@]3(CF)N=C(N)O[C@@H]4C[C@@H]43)c2)cn1 [Example 156, N-(3-((1R,5S,6R)-3-amino-5-(fluoromethyl)-2-oxa-4-azabicyclo[4.1.0]hept-3-en-5-yl)-4-chloro-5-fluorophenyl)-5-methoxypyrazine-2-carboxamide] | 0.055 µM | 897 µM | 0.0199 µM
NC1=N[C@@](c2cc(NC(=O)c3cnc(OCc4cncs4)cn3)ccc2F)(C(F)F)[C@H]2C[C@H]2O1 [Example 170, N-(3-((1R,5S,6R)-3-amino-5-(difluoromethyl)-2-oxa-4-azabicyclo[4.1.0]hept-3-en-5-yl)-4-fluorophenyl)-5-(thiazol-5-ylmethoxy)pyrazine-2-carboxamide] | 0.0867 µM | 445 µM | 0.56 µM
COc1cnc(C(=O)Nc2ccc(F)c([C@@]3(C(F)F)N=C(N)O[C@@H]4C[C@@H]43)c2)c(C)n1 [Example 63, N-(3((1R,5S,6R)-3-amino-5-(difluoromethyl)-2-oxa-4-azabicyclo[4.1.0]hept-3-en-5-yl)-4-fluorophenyl)-5-methoxy-3-methylpyrazine-2-carboxamide] | 0.0637 µM | 99.8 µM | 0.0584 µM
N#Cc1cnc2c(Nc3ccc(F)c([C@@]4(CF)N=C(N)O[C@@H]5C[C@@H]54)c3)ncc(F)c2c1 [Example 343, 8-((3-((1R,5S,6R)-3-amino-5-(fluoromethyl)-2-oxa-4-azabicyclo[4.1.0]hept-3-en-5-yl)-4-fluorophenyl)amino)-5-fluoro-1,7-naphthyridine-3-carbonitrile] | 0.0949 µM | > 44.4 µM | 0.0546 µM
CS(=O)(=O)c1ccc(C(=O)Nc2ccc(F)c([C@@]3(C(F)F)N=C(N)O[C@@H]4C[C@@H]43)c2)nc1 [Example 182, N-(3-((1R,5S,6R)-3-amino-5-(difluoromethyl)-2-oxa-4-azabicyclo[4.1.0]hept-3-en-5-yl)-4-fluorophenyl)-5-(methylsulfonyl) picolinamide] | 13.1 µM | 565 µM | 3.36 µM
C#CCOc1cnc(C(=O)Nc2cc(F)c(F)c(C3(CF)N=C(N)O[C@H]4C[C@H]43)c2)cn1 (stereo in doubt) [Example 34, N-(3-((1S,5S,6S)-3-amino-5-(fluoromethyl)-2-oxa-4-azabicyclo[4.1.0]hept-3-en-5-yl)-4,5-difluorophenyl)-5-(prop-2-yn-1-yloxy)pyrazine-2-carboxamide] | 6.21 µM | 623 µM | 1.75 µM
COc1cnc2c(Nc3ccc(F)c([C@]4(CF)N=C(N)O[C@H]5C[C@H]54)c3F)nccc2n1 [Example 354, (1S,5R,6S)-5-(2,6-difluoro-3-((2-methoxypyrido[3,4-b]pyrazin-5-yl)amino)phenyl)-5-(fluoromethyl)-2-oxa-4-azabicyclo[4.1.0]hept-3-en-3-amine] | 12.7 µM | 292 µM | 1.46 µM
NC1=N[C@@](c2cc(NC(=O)c3cc(Cl)ccn3)ccc2F)(C(F)F)[C@H]2C[C@H]2O1 [Example 287, N-(3-((1R,5S,6R)-3-amino-5-(difluoromethyl)-2-oxa-4-azabicyclo[4.1.0]hept-3-en-5-yl)-4-fluorophenyl)-4-chloropicolinamide] | 1.93 µM | 1630 µM | 2.11 µM
C[C@H](F)c1nc(C(=O)Nc2ccc(F)c([C@@]3(C(F)F)N=C(N)O[C@@H]4C[C@@H]43)c2)co1 (mixture of isomers) [Example 175, N-(3-((1R,5S,6R)-3-amino-5-(difluoromethyl)-2-oxa-4-azabicyclo[4.1.0]hept-3-en-5-yl)-4-fluorophenyl)-2-(1-fluoroethyl)oxazole-4-carboxamide 2,2,2-trifluoroacetate] | 2.88 µM | 1340 µM | 2.48 µM
Cc1cc(OC(F)F)cnc1C(=O)Nc1cc(Cl)c(F)c([C@@]2(CF)N=C(N)O[C@@H]3C[C@@H]32)c1 [Example 87, N-(3-((1R,5S,6R)-3-amino-5-(fluoromethyl)-2-oxa-4-azabicyclo[4.1.0]hept-3-en-5-yl)-5-chloro-4-fluorophenyl)-5-(difluoromethoxy)-3-methylpicolinamide] | 0.0323 µM | 164 µM | 0.0135 µM
NC1=N[C@@](c2cc(NC(=O)c3cnc(C#CC4CC4)cn3)ccc2F)(C(F)F)[C@H]2C[C@H]2O1 [Example 407, N-(3-((1R,5S,6R)-3-amino-5-(difluoromethyl)-2-oxa-4-azabicyclo[4.1.0]hept-3-en-5-yl)-4-fluorophenyl)-5-(cyclopropylethynyl)pyrazine-2-carboxamide] | 0.0296 µM | 170 µM | 0.301 µM
CC(C)(C)OCC(=O)Nc1ccc(F)c([C@@]2(C(F)F)N=C(N)O[C@@H]3C[C@@H]32)c1 [Example 254, N-(3-((1R,5S,6R)-3-amino-5-(difluoromethyl)-2-oxa-4-azabicyclo[4.1.0]hept-3-en-5-yl)-4-fluorophenyl)-2-(tert-butoxy)acetamide] | > 40 µM | 2560 µM | > 15.6 µM
C#CCOc1cnc(C(=O)Nc2cc(F)c(Cl)c([C@@]3(CF)N=C(N)O[C@@H]4C[C@@H]43)c2)cn1 [Example 317, N-(3-((1R,5S,6R)-3-amino-5-(fluoromethyl)-2-oxa-4-azabicyclo[4.1.0]hept-3-en-5-yl)-4-chloro-5-fluorophenyl)-5-(prop-2-yn-1-yloxy)pyrazine-2-carboxamide] | 0.0028 µM | 41 µM | 0.0014 µM
NC1=N[C@@](c2cc(NC(=O)c3ccccn3)ccc2F)(C(F)F)[C@H]2C[C@H]2O1 [Example 292, N-(3-((1R,5S,6R)-3-amino-5-(difluoromethyl)-2-oxa-4-azabicyclo[4.1.0]hept-3-en-5-yl)-4-fluorophenyl) picolinamide] | 0.3 µM | 690 µM | 0.279 µM
CC#CCOc1cnc(C(=O)Nc2ccc(Cl)c([C@@]3(CF)N=C(N)O[C@@H]4C[C@@H]43)c2)cn1 [Example 285, N-(3-((1R,5S,6R)-3-amino-5-(fluoromethyl)-2-oxa-4-azabicyclo[4.1.0]hept-3-en-5-yl)-4-chlorophenyl)-5-(but-2-yn-1-yloxy)pyrazine-2-carboxamide] | 0.0022 µM | 1830 µM | 0.0006 µM
N#Cc1cnc2c(Nc3ccc(Cl)c([C@@]4(C(F)F)N=C(N)O[C@@H]5C[C@@H]54)c3)ncc(F)c2c1 [Example 350, 8-((3-((1R,5S,6R)-3-amino-5-(difluoromethyl)-2-oxa-4-azabicyclo[4.1.0]hept-3-en-5-yl)-4-chlorophenyl)amino)-5-fluoro-1,7-naphthyridine-3-carbonitrile] | 0.0319 µM | > 14.8 µM | 0.0628 µM
